Experimental data taken from PMC12064818, “A general assay platform to study protein pharmacology using ligand-dependent structural dynamics” (Nature Communications, 2025).

What was measured:
FLuc-C-HiBiT = target: T1, FLuc-C-HiBiT (Photinus pyralis, UniProt P08659); assay: biochemical; conditions: enzyme activity, 10 uM ATP; read-out: IC50 or SDR50 (mM) / FLuc E
T1 construct: firefly luciferase with C-terminal HiBiT tag, E. coli expressed

[1] = target: FLuc-N-HiBiT (firefly luciferase) (Photinus pyralis, UniProt P08659, form not given/L550V); assay: SDR assay, FLuc-N-HiBiT; conditions: substituted indoline (clade A'); for % Activity (max response, + ATP) / % Activity (max response, - ATP): SDR
Chain of FLuc-N-HiBiT (firefly luciferase) (P08659 2-550 L550V, form open): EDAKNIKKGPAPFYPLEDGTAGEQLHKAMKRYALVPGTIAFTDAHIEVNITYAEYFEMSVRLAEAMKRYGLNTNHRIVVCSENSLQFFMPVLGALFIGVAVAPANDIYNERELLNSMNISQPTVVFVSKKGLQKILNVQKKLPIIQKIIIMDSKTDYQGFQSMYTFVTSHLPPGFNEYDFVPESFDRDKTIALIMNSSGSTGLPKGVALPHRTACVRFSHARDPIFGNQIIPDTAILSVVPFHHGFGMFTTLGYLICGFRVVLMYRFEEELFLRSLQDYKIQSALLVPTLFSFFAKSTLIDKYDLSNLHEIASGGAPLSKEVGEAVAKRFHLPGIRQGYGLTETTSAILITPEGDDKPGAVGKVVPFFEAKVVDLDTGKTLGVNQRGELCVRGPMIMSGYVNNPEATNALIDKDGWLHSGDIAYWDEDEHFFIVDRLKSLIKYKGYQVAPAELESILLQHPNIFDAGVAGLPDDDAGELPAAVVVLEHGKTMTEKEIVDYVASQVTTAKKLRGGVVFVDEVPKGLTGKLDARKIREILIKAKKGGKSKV

T1 sequence (P08659 whole entry, looked up): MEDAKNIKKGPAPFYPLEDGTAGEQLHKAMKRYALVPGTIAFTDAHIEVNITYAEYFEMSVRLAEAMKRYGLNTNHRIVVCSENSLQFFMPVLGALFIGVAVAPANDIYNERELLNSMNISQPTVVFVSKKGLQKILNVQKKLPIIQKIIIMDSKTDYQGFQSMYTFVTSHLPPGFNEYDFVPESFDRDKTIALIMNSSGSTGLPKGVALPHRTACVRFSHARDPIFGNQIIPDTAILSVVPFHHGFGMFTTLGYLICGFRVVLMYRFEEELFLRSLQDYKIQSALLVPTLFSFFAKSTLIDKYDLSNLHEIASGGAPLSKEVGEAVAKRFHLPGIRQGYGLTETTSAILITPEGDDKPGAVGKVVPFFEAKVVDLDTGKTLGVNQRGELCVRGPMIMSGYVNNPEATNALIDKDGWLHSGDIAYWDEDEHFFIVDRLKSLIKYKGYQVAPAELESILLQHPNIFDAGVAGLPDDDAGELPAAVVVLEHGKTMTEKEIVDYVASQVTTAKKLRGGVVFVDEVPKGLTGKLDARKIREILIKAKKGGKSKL

| Compound | IC50 (FLuc-C-HiBiT) | % Activity (max response, + ATP) ([1]; + ATP) | % Activity (max response, - ATP) ([1]; - ATP) | pSDR50 (clade A') ([1]; + ATP) | pSDR50 (clade A') ([1]; - ATP) |
| --- | --- | --- | --- | --- | --- |
| O=C(O)c1cccc2c1CCN2C(=O)c1ccccc1 [NCGC00432607-01] | 3940 nM | 65.64% | 14.85% | 5.66 |  |
| COc1ccc(NC(=O)N2CCc3c(C(=O)NCCCN4CCCC4=O)cccc32)cc1 [NCGC00430130-01] | 248 nM | 129.70% | 57.00% | 6.47 | 4.44 |
| CN(C)C(=O)c1cccc2c1CCN2C(=O)Nc1ccc(F)cc1 [NCGC00430198-01] | 3940 nM | 116.90% | 14.79% | 5.19 |  |
| O=C(NCCc1cccs1)c1cccc2c1CCN2C(=O)Nc1ccc(F)cc1 [NCGC00430196-01] | 785 nM | 108.30% | 19.81% | 5.86 |  |
| Cc1cccc(NC(=O)N2CCc3c(C(=O)NC(C)(C)C)cccc32)c1 [NCGC00430124-01] | 8810 nM | 30.08% | 45.88% | 3.69 | 4.31 |
| CN(Cc1ccco1)C(=O)c1cccc2c1CCN2C(=O)Nc1ccccc1 [NCGC00430106-01] | 197 nM | 117.40% | 20.13% | 6.53 | 2.52 |
| CN(C)CCNC(=O)c1cccc2c1CCN2C(=O)Nc1ccccc1 [NCGC00430150-01] | 700 nM | 120.00% | 17.07% | 5.93 |  |
| CCC(C)(C)NC(=O)c1cccc2c1CCN2C(=O)Nc1cccc(C)c1 [NCGC00430120-01] | 7850 nM | 86.92% | 21.61% | 4.90 | 2.52 |
| CN(Cc1ccccc1)C(=O)c1cccc2c1CCN2C(=O)Nc1ccccc1 [NCGC00430102-01] | 279 nM | 122.30% | 17.23% | 6.38 | 5.03 |
| COc1ccc(NC(=O)N2CCc3c(C(=O)N(C)C)cccc32)cc1 [NCGC00430182-01] | 111 nM | 126.00% | 37.35% | 6.80 | 4.62 |
| CCCCNC(=O)c1cccc2c1CCN2C(=O)Nc1ccccc1 [NCGC00430146-01] | 1570 nM | 123.10% | 25.03% | 5.71 | 5.51 |
| COc1ccc(NC(=O)N2CCc3c(C(=O)NCCN4CCCCCC4)cccc32)cc1 [NCGC00430136-01] | 556 nM | 125.00% | 26.27% | 6.10 | 3.93 |
| CCC(=O)N1CCc2c(C(=O)O)cccc21 [NCGC00432605-01] | > 30000 nM | 19.35% | 9.26% |  |  |
| COc1ccc(NC(=O)N2CCc3c(C(=O)N(C)Cc4ccco4)cccc32)cc1 [NCGC00430138-01] | 1760 nM | 125.10% | 31.17% | 5.60 | 3.60 |
| CCN1CCN(CCNC(=O)c2cccc3c2CCN3C(=O)Nc2ccc(C)cc2)CC1 [NCGC00430114-01] | 1110 nM | 125.50% | 93.19% | 5.79 | 4.11 |
| O=C(O)c1cccc2c1CCN2C(=O)c1ccc(F)cc1 [NCGC00432675-01] | 1760 nM | 81.35% | 20.90% | 5.89 | 4.16 |
| CNC(=O)c1cccc2c1CCN2C(=O)Nc1ccc(C)cc1 [NCGC00430160-01] | 351 nM | 123.10% | 78.58% | 6.37 | 4.88 |
| Cc1ccc(NC(=O)N2CCc3c(C(=O)NCc4ccco4)cccc32)cc1 [NCGC00430166-01] | 49.5 nM | 127.00% | 89.24% | 7.11 | 5.17 |
| CC(NC(=O)c1cccc2c1CCN2C(=O)Nc1ccccc1)c1cccnc1 (stereo not drawn) [NCGC00430104-01] | 1760 nM | 120.10% | 19.02% | 5.53 | 4.71 |
| O=C(NCCc1cccnc1)c1cccc2c1CCN2C(=O)Nc1ccc(F)cc1 [NCGC00430192-01] | 221 nM | 119.50% | 23.04% | 6.44 | 2.73 |
| COc1ccc(NC(=O)c2cccc3c2CCN3C(=O)Nc2ccc(F)cc2)c(C)c1 [NCGC00430188-01] | 556 nM | 119.00% | 13.12% | 6.16 |  |
| CCCNC(=O)c1cccc2c1CCN2C(=O)Nc1cccc(C)c1 [NCGC00430116-01] | 2480 nM | 115.10% | 34.94% | 5.48 | 3.57 |
| Cc1cccc(NC(=O)N2CCc3c(C(=O)N4CCN(C)CC4)cccc32)c1 [NCGC00430118-01] | 1760 nM | 120.00% | 22.45% | 5.59 | 3.92 |
| O=C(O)c1cccc2c1CCN2C(=O)Nc1ccc(F)cc1 [NCGC00432687-01] | 3.51 nM | 127.90% | 102.18% | 8.36 | 4.92 |
| COc1ccc(NC(=O)N2CCc3c(C(=O)NCc4ccncc4)cccc32)cc1 [NCGC00430180-01] | 624 nM | 125.10% | 68.63% | 6.06 | 4.73 |
| O=C(NCc1ccco1)c1cccc2c1CCN2C(=O)Nc1ccc(F)cc1 [NCGC00430142-01] | 1110 nM | 118.20% | 37.02% | 5.76 | 3.81 |
| Cc1ccc(NC(=O)N2CCc3c(C(=O)NCCc4ccccn4)cccc32)cc1 [NCGC00430168-01] | 4420 nM | 131.70% | 51.01% | 4.89 | 4.36 |
| CCOC(=O)C1CCN(C(=O)c2cccc3c2CCN3C(=O)Nc2ccccc2)CC1 [NCGC00430100-01] | 1760 nM | 124.90% | 16.28% | 5.52 |  |
